In patent publication US11111500B2, “Mutated protoporphyrinogen IX oxidase (PPX) genes” (CIBUS US LLC, priority 2010, dated 2021):
Like-named read-outs stand apart in the source and are kept apart here.

Tests used:
[1] = Solubility of herbicide in liquid culture selection media; assay type: physicochemical
Description: Liquid culture selection conditions were developed for both sulfentrazone and flumioxazin. Cultures of 1 mL volume were tested with sulfentrazone and flumioxazin concentrations ranging from 0 to 10 mM. The 0 mM samples had 25 μL DMSO (2.5%) to mimic the concentration of DMSO in the samples containing 10 mM herbicide. Each tube was inoculated with 10 μL of an overnight culture of HemG cells complemented with the wildtype PPX plasmid to ensure uniformity. Spectrophotometric readings (OD600) were taken for each sample (1:4 dilution) and a sample of each plated on LB-Chlor-IPTG plates to determine whether the OD600 correlated with the number of viable colonies. A 10% dilution of the overnight culture was plated for the sulfentrazone-treated cells and a 1% dilution for the cells treated with flumioxazin was plated (see results in Tables 8a-f and 9a-d).
Both sulfentrazone and flumioxazin precipitate out in the liquid media, causing it to appear opaque even before inoculating bacteria.

[2] = tested on: potato protoplasts (protoplast-derived cells); experiment: Sulfentrazone kill curve with cell suspension and shoot tip-derived protoplasts; assay type: cell-based; details: for Microcallus formation: exposed one month; for # Of calli in 3 beads, # / # Of calli in 3 beads, %: Non treated protoplast + PEG; for # Of calli in 3 beads, # / # Of calli in 3 beads, % / # of calli in beads, # / # of calli in beads, %: one month; for # Of calli in 3 beads, % / # of calli in beads, %: relative to 0.0 μM; for # of calli in beads, # / # of calli in beads, %: Stop-GFP + Correcting GRON protoplasts
Description: Herbicide selection experiments were performed to determine the concentration of herbicide necessary to kill protoplast derived microcalli in a defined treatment period. […] The herbicide was suspended in DMSO, with the final concentration of DMSO in the herbicide treatments being 1%. Development of cells was evaluated under the microscope once a week. […]
Therefore, new kill curves were initiated with lower concentrations of 0, 0.5, 0.6, 0.7 and 0.8 μM of sulfentrazone, shown in Table 1.3.
About 200 shoot tips of 2-8 week-old in vitro shoots that have been cultured under a regular day/night regime, or, preferably were kept for two days before protoplast isolation in the dark, shoots may be cut into small pieces with a scalpel in a petri dish with sterile water. After all tips have been cut, the water is replaced with protoplast culture medium, preferably BN (B5 Salts and Vitamins (Phytotechnology Laboratories), glucose 20 g/L, mannitol 70 g/L, alpha naphthalene acetic acid 5 mg/L, additional CaCl2×2H2O 600 mg/L, casein hydrolysate 250 mg/L, cystcine-HCL 10 mg/L, polyvinylpyrrolidone (MW 10,000) 5 g/L. After approximately 1-2 h, the protoplast culture medium is replaced with enzyme solution, for example consisting of medium BN, in which 0.5% (w/v) Cellulase YC and 0.75% (w/v) Maccrozyme R10 (both from Karlan Research Products, Cottonwood, Ariz.), 1 g/L bovine serum albumin, and 1 g/L 2-morpholinoethanesulfonic acid are dissolved. The ratio of the number of shoot tips over the volume of enzyme solution can be between 10 and 16, preferably 13. The dish with shoot tip pieces in enzyme solution is incubated for at 25° C.-30° C., preferably 28° C., in darkness on a shaker set to about 50 rpm. After overnight incubation the protoplast suspension is purified using an iodixanol density gradient (adapted from Optiprep Application Sheet C18; Purification of Intact Plant Protoplasts; Axis-Shield USA, 10 Commerce Way, Norton, Mass. 02776). After the density gradient centrifugation, the band with purified protoplasts is removed together with about 5 mL W5 medium (Frigerio et al., 1998). The protoplast density and yield are determined with a hemocytometer. The protoplasts density is adjusted to 1×10^6/mL in BN medium containing 2 mg/L 2,6-dichlorobenzonitrile (cellulose synthase inhibitor), and the protoplasts are cultured in darkness at 30° C. for about 16 h.
1. Fast growing cell suspensions are used, preferably three days after their last subculture. 1.5 mL settled cell volume is transferred to about 15 ml BN medium, which after 2 h is replaced with enzyme solution. 2. The protoplast purification is followed immediately by the GRON/PEG treatment.
The protoplast suspension is mixed with an equal volume of W5 medium, transferred to a 50 mL centrifuge tube, and centrifuged for 10 min at the lowest setting of a clinical centrifuge (about 50×g). The supernatant is removed and replaced with TM medium (Klaus, S. Markerfreie transplastome Tabakpflanzen (Marker-free transplastomic tobacco plants). PhD Dissertation, 2002, Ludwig-Maximilians-Universitát Múnchen, 109 pp), adjusting the protoplast density to 5×10^6/mL. Aliquots of 100 μL containing 5×10^5 protoplasts each are distributed into 12 mL round bottom centrifuge tubes. GRONs (such as those shown in Table 14) targeted at one or more mutations in one or both of the mitochondrial and plastidal PPX genes are then introduced into the protoplasts using a PEG treatment. To introduce the GRONs into the protoplasts, 12.5 μg GRON dissolved in 25 μL purified water and 125 μL of a polyethylene glycol solution (5 g PEG MW 1500, 638 mg mannitol, 207 mg CaNO3×4H2O and 8.75 mL purified water; pH adjusted to about 9.0) is added. After a 10-30 min incubation on ice, the protoplast-PEG suspension is washed with W5 medium and resuspended in medium BN. The suspension is kept overnight in darkness at room temperature.
One day after the GRON introduction, protoplasts are embedded in calcium alginate. […]

C#CCN1C(=O)COc2cc(F)c(N3C(=O)C4=C(CCCC4)C3=O)cc21 [flumioxazin]
solubility in liquid media ([1]; liquid culture selection media, 0 to 10 mM, DMSO 2.5%): deficient solubility

Cc1nn(-c2cc(NS(C)(=O)=O)c(Cl)cc2Cl)c(=O)n1C(F)F [sulfentrazone]
Microcallus formation ([2]; 7.8 μM sulfentrazone): No | Microcallus formation ([2]; 15.6 μM sulfentrazone): No | Microcallus formation ([2]; 31.25 μM sulfentrazone): No | Microcallus formation ([2]; 62.5 μM sulfentrazone): No | # Of calli in 3 beads, # ([2]; 0.5 μM): 45 | # Of calli in 3 beads, % ([2]; 0.5 μM): 30% | # Of calli in 3 beads, # ([2]; 0.6 μM): 8 | # Of calli in 3 beads, % ([2]; 0.6 μM): 6.9% | # Of calli in 3 beads, # ([2]; 0.7 μM): 2 | # Of calli in 3 beads, % ([2]; 0.7 μM): 1.7% | # Of calli in 3 beads, # ([2]; 0.8 μM): 0.0 | # Of calli in 3 beads, % ([2]; 0.8 μM): 0.0% | # of calli in beads, # ([2]; 0.5 μM): 38 | # of calli in beads, % ([2]; 0.5 μM): 30.2% | # of calli in beads, # ([2]; 0.6 μM): 12 | # of calli in beads, % ([2]; 0.6 μM): 9.6% | # of calli in beads, # ([2]; 0.7 μM): 7 | # of calli in beads, % ([2]; 0.7 μM): 5.6% | # of calli in beads, # ([2]; 0.8 μM): 0.0 | # of calli in beads, % ([2]; 0.8 μM): 0.0% | concentration sufficient to kill all protoplast-derived cells ([2]; shoot tip-derived protoplasts and cell suspension): 7.8 µM | solubility in liquid media [1]: eventually goes into solution
